The target in test [1] is T1, human EphB4 ephrin-binding domain (Homo sapiens, UniProt P54760).
T1 sequence (P54760 17-196): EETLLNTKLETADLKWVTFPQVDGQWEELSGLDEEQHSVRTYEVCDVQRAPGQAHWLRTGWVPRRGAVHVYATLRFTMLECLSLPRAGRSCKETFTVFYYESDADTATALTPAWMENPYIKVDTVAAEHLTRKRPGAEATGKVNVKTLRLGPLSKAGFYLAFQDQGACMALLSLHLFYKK
Nature of the test: Isothermal titration calorimetry (ITC) binding to EphB4 (17-196). The settings on record: 25° C., 50 mM Tris pH 7.8, 150 mM NaCl. The method, then: Peptides were dissolved into the same buffer used for the dialysis of EphB4. […] ITC experiments were performed with a Microcal MCS ITC at 25° C. Following an initial injection of 2 μl, titrations were performed by making 20 13 μl injections of peptide into EphB4 in the sample cell to produce an approximate final 2:1 ratio of injectant to sample in the cell. […] Prior to loading the sample cell, EphB4 was centrifuged at 18,000 g for 5 min at 4° C. to remove aggregates and degassed for 5 minutes at room temperature. […] Dilution data were fit to a line and subtracted from the corresponding titration data.
Background: In ITC the heat of successive injections is recorded.

Test [2] has as its target T2, mouse EphB4 ectodomain Fc fusion protein (Mus musculus, UniProt P54761).
T2 sequence (P54761 16-539 limits assumed): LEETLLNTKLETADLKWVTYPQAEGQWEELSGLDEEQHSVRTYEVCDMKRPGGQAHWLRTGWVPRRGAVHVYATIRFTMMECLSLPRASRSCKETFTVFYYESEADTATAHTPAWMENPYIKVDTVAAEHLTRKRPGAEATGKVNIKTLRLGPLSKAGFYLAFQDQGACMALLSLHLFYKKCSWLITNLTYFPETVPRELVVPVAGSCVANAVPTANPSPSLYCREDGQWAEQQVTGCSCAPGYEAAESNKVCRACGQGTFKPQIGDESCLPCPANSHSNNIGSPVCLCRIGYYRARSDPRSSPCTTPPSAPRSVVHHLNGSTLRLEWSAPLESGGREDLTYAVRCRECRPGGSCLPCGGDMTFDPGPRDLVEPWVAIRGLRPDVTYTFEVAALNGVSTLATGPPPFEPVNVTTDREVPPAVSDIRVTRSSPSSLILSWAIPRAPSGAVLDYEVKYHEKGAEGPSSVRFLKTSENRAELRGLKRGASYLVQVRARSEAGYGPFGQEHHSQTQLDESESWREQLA
Description: ELISA competition: inhibition of mouse ephrin-B2 alkaline phosphatase (AP) binding to immobilized mouse EphB4 ectodomain Fc. The settings on record: murine receptor; for IC50: IC50 for inhibition of mouse ephrin-B2 AP binding to immobilized mouse EphB4 ectodomain Fc, ELISA binding assay. For orientation: In an ELISA, binding on a coated surface is turned into a signal by an enzyme label.

Test [3] has as its target T3, human EphB4 ephrin-binding domain, EphB4 (17-196) (human, UniProt P54760 17-196).
T3 sequence: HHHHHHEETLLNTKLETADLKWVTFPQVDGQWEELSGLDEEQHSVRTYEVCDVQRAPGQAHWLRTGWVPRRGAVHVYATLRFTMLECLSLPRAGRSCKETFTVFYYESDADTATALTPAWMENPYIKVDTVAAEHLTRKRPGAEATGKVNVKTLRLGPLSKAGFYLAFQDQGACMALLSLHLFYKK
Nature of the test: ITC at 25 °C, peptide injected into human EphB4 (17-196). The protocol:
Isothermal titration calorimetry and ELISA experiments: EphB4and ephrin-B2 were either dialyzed or buffer exchanged into 50 mM Tris-Cl (pH 7.8 at 25° C.), 150 mM NaCl, 1 mM CaCl₂, prior to use in calorimetry experiments. Peptides were dissolved into the same buffer used for the dialysis of EphB4. The concentration of EphB4, ephrin-B2 and the peptides was determined by measuring the A₂₈₀ and using the theoretical-extinction coefficient (Gill and von Hippel, 1989). ITC experiments were performed with a Microcal MCS ITC at 25° C. Following an initial injection of 2 μl, titrations were performed by making 20 13 μl injections of peptide into EphB4 in the sample cell to produce an approximate final 2:1 ratio of injectant to sample in the cell. For most titrations the sample cell contained 15 μM EphB4 and the injection syringe contained a 200 μM solution of the peptide. Titrations with ephrin-B2 contained 13 μM EphB4 in the sample cell and 290 μM ephrin-B2 in the syringe. Prior to loading the sample cell, EphB4 was centrifuged at 18,000 g for 5 min at 4° C. to remove aggregates and degassed for 5 minutes at room temperature. Corrections for heats of dilution for the peptides and ephrin-B2 were determined by performing titrations of peptide or ephrin-B2 solutions into buffer. Dilution data were fit to a line and subtracted from the corresponding titration data. Titration data were analyzed using Origin ITC software (Version 5.0, Microcal Software Inc.) and curves were fit to a single binding site model (Wiseman et al., 1989). […] A lower limit for the binding constant was determined by performing a titration in which the sample cell contained 30 μM EphB4 and the injection syringe contained a 1.45 mM solution of the peptide, producing a final ratio of peptide to EphB4 of 10:1. The data was fit assuming a stoichiometry of 1 and at least 60% saturation of binding at the final peptide concentration (Turnbull and Daranas, 2003).

Test [4] has as its target T4, mouse EphB4 ectodomain Fc fusion protein (mouse EphB4-Fc-His, R&D Systems) (mouse, UniProt P54761 16-539).
T4 construct: extracellular domain; also called murine EphB4; not shown: Fc part of a bought fusion protein; His tag of the bought protein
T4 sequence (looked up): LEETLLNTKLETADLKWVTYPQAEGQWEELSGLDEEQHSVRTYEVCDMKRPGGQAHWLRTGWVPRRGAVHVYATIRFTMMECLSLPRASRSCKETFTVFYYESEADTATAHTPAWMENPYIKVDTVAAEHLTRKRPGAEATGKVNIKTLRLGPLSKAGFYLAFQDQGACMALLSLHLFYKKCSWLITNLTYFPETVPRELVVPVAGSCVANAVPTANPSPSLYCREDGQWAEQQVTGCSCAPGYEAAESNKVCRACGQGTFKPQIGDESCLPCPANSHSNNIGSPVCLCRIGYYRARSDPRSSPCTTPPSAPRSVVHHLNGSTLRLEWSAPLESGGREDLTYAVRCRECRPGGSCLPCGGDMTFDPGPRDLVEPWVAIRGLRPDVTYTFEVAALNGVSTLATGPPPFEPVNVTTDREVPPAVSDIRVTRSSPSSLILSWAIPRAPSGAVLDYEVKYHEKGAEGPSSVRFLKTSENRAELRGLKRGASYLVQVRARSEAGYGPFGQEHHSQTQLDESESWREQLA
Nature of the test: competition ELISA: inhibition of mouse ephrin-B2 AP binding to immobilized mouse EphB4 ectodomain Fc. The protocol: The ability of peptides to compete the binding of mouse ephrin-B2 alkaline phosphatase to immobilized mouse EphB4-Fc-His (R&D Systems) was measured by ELISA as previously described (Koolpe et al., 2005).

Values joined by “and” are separate entries in the source; they are usually repeats but may differ in a detail not shown here. Equal values may be shown once. Read-outs that look alike come from different tables or passages of the source. Ends that are not written are not given here. Peptide text beside a SMILES is read from it. * marks the point of attachment. Biotin = O=C1N[C@H]2[C@H](CS[C@H]2CCCCC(=O)*)N1

Usually IC50 stands for the point on the concentration scale where inhibition reaches its midpoint. A low value points to greater potency. For `CC[C@H](C)[C@H](NC(=O)[C@@H]1CCCN1C(=O)CNC(=O)[C@H](CC(N)=O)NC(=O)[C@@H]1CCCN1C(=O)[C@H](CO)NC(=O)[C@H](Cc1ccccc1)NC(=O)[C@@H](N)CC(C)C)C(=O)N[C@@H](C)C(=O)N[C@@H](CCCNC(=N)N)C(=O)N[C@@H](C)C(=O)N[C@@H](Cc1c[nH]c2ccccc12)C(=O)O` [LFSP-RAW] (H-LFSPNGPIARAW-OH; N-terminus and C-terminus assumed), in test [1] (1 mM CaCl2), the TΔS amounted to 2.1 ± 0.4 kcal/mol, the ΔG is -7.4 ± 0.1 kcal/mol and the ΔH was -5.3 ± 0.5 kcal/mol. In addition, the IC50 in test [2] is greater than 10000 nM.
The corresponding values for `CC[C@H](C)[C@H](NC(=O)[C@@H]1CCCN1C(=O)CNC(=O)[C@H](CC(N)=O)NC(=O)[C@@H]1CCCN1C(=O)[C@H](CO)NC(=O)[C@H](Cc1ccccc1)NC(=O)[C@H](CC(C)C)NC(=O)[C@H](Cc1ccc(O)cc1)NC(=O)[C@@H](N)CC(N)=O)C(=O)N[C@@H](C)C(=O)N[C@@H](CCCNC(=N)N)C(=O)N[C@@H](C)C(=O)N[C@@H](Cc1c[nH]c2ccccc12)C(=O)O` [NYLF-RAW] (H-NYLFSPNGPIARAW-OH; N-terminus and C-terminus assumed) are -5.7 ± 0.1 kcal/mol, -9.8 ± 0.1 kcal/mol, -15.5 ± 0.1 kcal/mol and 40 nM.
Usually Kd stands for a measure of binding affinity in units of concentration. Consider `CC[C@H](C)[C@H](NC(=O)[C@@H]1CCCN1C(=O)CNC(=O)[C@H](CC(N)=O)NC(=O)[C@@H]1CCCN1C(=O)[C@H](CO)NC(=O)[C@H](Cc1ccccc1)NC(=O)[C@H](CC(C)C)NC(=O)[C@H](Cc1ccc(O)cc1)NC(=O)[C@H](CC(N)=O)NC(=O)[C@@H](N)[C@@H](C)O)C(=O)N[C@@H](C)C(=O)N[C@@H](CCCNC(=N)N)C(=O)N[C@@H](C)C(=O)N[C@@H](Cc1c[nH]c2ccccc12)C(=O)O` [TNYL-RAW] (H-TNYLFSPNGPIARAW-OH; N-terminus assumed), for which, in test [1] (1 mM CaCl2), the TΔS is -4.9 ± 0.2 kcal/mol; the ΔG was -9.8 ± 0.1 kcal/mol; the ΔH is -14.7 kcal/mol and -14.7 ± 0.2 kcal/mol. This molecule registered a Kd in test [1] (Kd, 1 mM CaCl2) of 70 nM. Also, the IC50 in test [2] is ~15 nM and 15 nM.
As to `CC[C@H](C)[C@H](NC(=O)[C@@H]1CCCN1C(=O)CNC(=O)[C@H](CC(N)=O)NC(=O)[C@@H]1CCCN1C(=O)[C@H](CO)NC(=O)[C@H](Cc1ccccc1)NC(=O)[C@H](CC(C)C)NC(=O)[C@H](Cc1ccc(O)cc1)NC(=O)[C@H](CC(N)=O)NC(=O)[C@@H](N)[C@@H](C)O)C(=O)N[C@@H](C)C(=O)O` [TNYL], in test [1] (1 mM CaCl2), the ΔH was -9.6 ± 0.3 kcal/mol. The Kd in test [1] (1 mM CaCl2, read-out: Kd) was no less than 140000 nM. In addition, in test [2], the IC50 is ~150000 nM and 150000 nM. In addition, the “fold less potent than TNYL-RAW (IC50)” value in test [2] (ratio of IC50 values) is 10,000 fold.
Take `CC[C@H](C)[C@H](NC(=O)[C@@H]1CCCN1C(=O)CNC(=O)[C@H](CC(N)=O)NC(=O)[C@@H]1CCCN1C(=O)[C@H](CO)NC(=O)[C@H](Cc1ccccc1)NC(=O)[C@H](CC(C)C)NC(=O)[C@@H](N)Cc1ccc(O)cc1)C(=O)N[C@@H](C)C(=O)N[C@@H](CCCNC(=N)N)C(=O)N[C@@H](C)C(=O)N[C@@H](Cc1c[nH]c2ccccc12)C(=O)O` [YLFS-RAW] (H-YLFSPNGPIARAW-OH; N-terminus and C-terminus assumed): in test [1] (1 mM CaCl2), the TΔS was -4.1 ± 0.4 kcal/mol, the ΔG was -9.7 ± 0.2 kcal/mol and the ΔH was -13.8 ± 0.5 kcal/mol. Besides, the 50% inhibitory concentration (IC50) in test [2] is 40 nM.
On to NYLFSPNGPIARAW [NYLF-RAW peptide (NYLFSPNGPIARAW)], for which, in test [3], the Kd is 65 nM, the TΔS is -5.7 kcal/mol, the ΔG is -9.8 kcal/mol and the ΔH is -15.5 kcal/mol.

B1: Human ephrin-B2 monomer (ligand)
chain: IVLEPIYWNSSNSKFLPGQGLVLYPQIGDKLDIICPKVDSKTVGQYEYYKVYMVDKDQADRCTIKKENTPLLNCAKPDQDIKFTIKFQEFSPNLWGLEFQKNKDYYIISTSNGSLEGLDNQEGGVCQTRAMKILMKVG
In test [4], B1 displayed an IC50 of 10 nM.
As to TNYLFSPNGPIAGSGSK(Biotin) [TNYL-biotin peptide (TNYLFSPNGPIAGSGSK-biotin)], in test [4], the IC50 came to 50000 nM.
In the case of YLFSPNGPIARAW [YLFS-RAW peptide (YLFSPNGPIARAW)], in test [3], the Kd is 80 nM, the TΔS is -4.1 kcal/mol, the ΔG was -9.7 kcal/mol and the ΔH was -13.8 kcal/mol.

B2: ephrin-B2 Fc (Fc fusion, not shown: a dimerising Fc or GST; large carriers; small tags and cut ends)
chain: RSIVLEPIYWNSSNSKFLPGQGLVLYPQIGDKLDIICPKVDSKTVGQYEYYKVYMVDKDQADRCTIKKENTPLLNCARPDQDVKFTIKFQEFSPNLWGLEFQKNKDYYIISTSNGSLEGLDNQEGGVCQTRAMKILMKVGQDASSAGSARNHGPTRRPELEAGTNGRSSTTSPFVKPNPGSSTDGNSAGHSGNNLLGSEVALFA
Consider B2, for which the IC50 in test [4] came to 9 nM.

The values above are taken from patent US20080064052A1, “Crystal of a Receptor-Ligand Complex and methods of use” (priority 2006, published 2008).
